Here are results for three compounds from PubChem BioAssay AID192 (DTP/NCI, 2004).

Each structure is given as a SMILES string. Values joined by “and” are separate entries in the source; they are usually repeats but may differ in a detail not shown here. Equal values may be shown once. Inconclusive results and toxic doses are left out.

The test system of the assay is BDF1 mice, B16 melanoma ip, median survival T/C. In words: NCI In Vivo Anticancer Drug Screen. Data for tumor model B16 Melanoma (intraperitoneal) in B6D2F1 (BDF1) mice. Conditions: endpoint: median survival time, higher = longer survival. A digest of the protocol: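 In this screen, activity was judged from survival or tumor size in treated versus vehicle-treated tumor-bearing mice, reported as T/C.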

[1] abbreviates: dose: 100.0 mg/kg/injection, schedule: Q01DX009 (ip), vehicle: saline with Tween-80.

`O=P1(N(CCCl)CCCl)NCCCO1` (centres undefined): the T/C was 102 % of control (dose: 2.5 mg/kg/injection, schedule: Q01DX009 (ip), vehicle: saline); 100 % of control (dose: 5.0 mg/kg/injection, schedule: Q01DX009 (ip), vehicle: saline); 110 % of control (dose: 6.25 mg/kg/injection, schedule: Q01DX017 (ip), vehicle: saline); 107 % of control and 108 % of control (dose: 6.25 mg/kg/injection, schedule: Q02DX009 (ip), vehicle: saline); 100 % of control (dose: 10.0 mg/kg/injection, schedule: Q01DX005 (ip), vehicle: water); 102 % of control (dose: 10.0 mg/kg/injection, schedule: Q01DX009 (ip), vehicle: saline). Besides, the T/C (dose: 10.0 mg/kg/injection, schedule: Q01DX009 (ip), vehicle: water) was 111 % of control; the T/C (dose: 10.0 mg/kg/injection, schedule: Q04DX003 (ip), vehicle: saline) is 114 % of control; the T/C (dose: 12.0 mg/kg/injection, schedule: Q01DX009 (ip), vehicle: saline) was 105 % of control; the T/C (dose: 12.5 mg/kg/injection, schedule: Q01DX009 (ip), vehicle: water) is 104 % of control; the T/C (dose: 12.5 mg/kg/injection, schedule: Q02DX009 (ip), vehicle: saline) is 107 % of control; the T/C (dose: 15.0 mg/kg/injection, schedule: Q04DX003 (ip), vehicle: saline) was 107 % of control. In addition, the T/C by setting is: (dose: 20.0 mg/kg/injection, schedule: Q01DX005 (ip), vehicle: water) 111 % of control; (dose: 20.0 mg/kg/injection, schedule: Q01DX009 (ip), vehicle: saline) 112 % of control; (dose: 20.0 mg/kg/injection, schedule: Q04DX003 (ip), vehicle: saline) 120 % of control; (dose: 25.0 mg/kg/injection, schedule: Q01DX001 (ip), vehicle: saline) 103 % of control; (dose: 25.0 mg/kg/injection, schedule: Q01DX009 (ip), vehicle: Klucel (hydroxypropylcellulose) (HPC)) 107 % of control; (dose: 25.0 mg/kg/injection, schedule: Q01DX009 (ip), vehicle: saline with Tween-80) 112 % of control. The T/C runs as follows: (dose: 25.0 mg/kg/injection, schedule: Q01DX017 (ip), vehicle: saline) 150 % of control; (dose: 25.0 mg/kg/injection, schedule: Q02DX009 (ip), vehicle: saline) 114 % of control and 122 % of control and 123 % of control; (dose: 25.0 mg/kg/injection, schedule: Q04DX003 (ip), vehicle: saline) 119 % of control and 122 % of control; (dose: 25.0 mg/kg/injection, schedule: Q08DX002 (ip), vehicle: saline) 117 % of control; (dose: 30.0 mg/kg/injection, schedule: Q01DX009 (ip), vehicle: water) 161 % of control; (dose: 30.0 mg/kg/injection, schedule: Q04DX003 (ip), vehicle: saline) 114 % of control. Besides, the T/C by setting is: (dose: 38.9 mg/kg/injection, schedule: Q08DX002 (ip), vehicle: saline) 116 % of control; (dose: 40.0 mg/kg/injection, schedule: Q01DX005 (ip), vehicle: water) 122 % of control; (dose: 40.0 mg/kg/injection, schedule: Q01DX009 (ip), vehicle: water) 172 % of control; (dose: 40.0 mg/kg/injection, schedule: Q04DX003 (ip), vehicle: saline) 124 % of control; (dose: 41.5 mg/kg/injection, schedule: Q04DX003 (ip), vehicle: saline) 120 % of control; (dose: 50.0 mg/kg/injection, schedule: Q01DX009 (ip), vehicle: water) 159 % of control and 180 % of control. The T/C was 110 % of control (dose: 50.0 mg/kg/injection, schedule: Q01DX017 (ip), vehicle: saline); 124 % of control (dose: 50.0 mg/kg/injection, schedule: Q04DX003 (ip), vehicle: saline); 162 % of control (dose: 50.0 mg/kg/injection, schedule: Q04DX005 (ip), vehicle: saline); 169 % of control (dose: 60.0 mg/kg/injection, schedule: Q01DX005 (ip), vehicle: water); 110 % of control (dose: 72.0 mg/kg/injection, schedule: Q01DX001 (ip), vehicle: saline); 156 % of control (dose: 75.0 mg/kg/injection, schedule: Q01DX001 (ip), vehicle: Klucel (hydroxypropylcellulose) (HPC)). The T/C was 159 % of control (dose: 80.0 mg/kg/injection, schedule: Q04DX003 (ip), vehicle: saline); 169 % of control (dose: 93.3 mg/kg/injection, schedule: Q04DX003 (ip), vehicle: saline); 117 % of control (dose: 100.0 mg/kg/injection, schedule: Q01DX009 (ip), vehicle: Klucel (hydroxypropylcellulose) (HPC)); 103 % of control and 117 % of control under setting [1]; 91 % of control and 112 % of control (dose: 100.0 mg/kg/injection, schedule: Q02DX009 (ip), vehicle: saline); 105 % of control (dose: 100.0 mg/kg/injection, schedule: Q04DX005 (ip), vehicle: saline). Also, the T/C (dose: 100.0 mg/kg/injection, schedule: Q08DX003 (ip), vehicle: saline) is 166 % of control; the T/C (dose: 108.0 mg/kg/injection, schedule: Q08DX002 (ip), vehicle: saline) was 161 % of control; the T/C (dose: 120.0 mg/kg/injection, schedule: Q01DX001 (ip), vehicle: saline) was 124 % of control; the T/C (dose: 120.0 mg/kg/injection, schedule: Q04DX003 (ip), vehicle: saline) is 163 % of control; the T/C (dose: 140.0 mg/kg/injection, schedule: Q04DX003 (ip), vehicle: saline) is 169 % of control; the T/C (dose: 160.0 mg/kg/injection, schedule: Q04DX003 (ip), vehicle: saline) was 191 % of control. For the same compound, the T/C (dose: 180.0 mg/kg/injection, schedule: Q08DX002 (ip), vehicle: saline) was 192 % of control; the T/C (dose: 200.0 mg/kg/injection, schedule: Q01DX001 (ip), vehicle: water) was 121 % of control; the T/C (dose: 200.0 mg/kg/injection, schedule: Q04DX003 (ip), vehicle: saline) was 111 % of control; the T/C (dose: 210.0 mg/kg/injection, schedule: Q04DX003 (ip), vehicle: saline) is 205 % of control; the T/C (dose: 300.0 mg/kg/injection, schedule: Q01DX001 (ip), vehicle: Klucel (hydroxypropylcellulose) (HPC)) is 100 % of control; the T/C (dose: 300.0 mg/kg/injection, schedule: Q08DX002 (ip), vehicle: saline) is 117 % of control and 220 % of control and 226 % of control. Further, the T/C (dose: 333.0 mg/kg/injection, schedule: Q01DX001 (ip), vehicle: saline) is 155 % of control.

Consider `CC(C)[C@]12O[C@H]1[C@@H]1O[C@]13[C@]1(O[C@H]1C[C@H]1C4=C(CC[C@@]13C)C(=O)OC4)[C@@H]2O`, for which the T/C (dose: 8.0 micrograms/kg/injection, schedule: Q01DX009 (ip), vehicle: saline + alcohol) was 114 % of control; the T/C (dose: 12.5 micrograms/kg/injection, schedule: Q01DX009 (ip), vehicle: saline with Tween-80) was 119 % of control; the T/C (dose: 16.0 micrograms/kg/injection, schedule: Q01DX009 (ip), vehicle: saline + alcohol) is 109 % of control; the T/C (dose: 25.0 micrograms/kg/injection, schedule: Q01DX009 (ip), vehicle: saline with Tween-80) is 112 % of control; the T/C (dose: 32.0 micrograms/kg/injection, schedule: Q01DX009 (ip), vehicle: saline + alcohol) is 104 % of control; the T/C (dose: 50.0 micrograms/kg/injection, schedule: Q01DX009 (ip), vehicle: saline with Tween-80) is 124 % of control. Also, the T/C (dose: 64.0 micrograms/kg/injection, schedule: Q01DX009 (ip), vehicle: saline + alcohol) was 104 % of control; the T/C (dose: 100.0 micrograms/kg/injection, schedule: Q01DX009 (ip), vehicle: saline with Tween-80) is 107 % of control; the T/C (dose: 200.0 micrograms/kg/injection, schedule: Q01DX009 (ip), vehicle: saline with Tween-80) is 122 % of control; the T/C (dose: 400.0 micrograms/kg/injection, schedule: Q01DX009 (ip), vehicle: saline with Tween-80) is 100 % of control.

`N#CCCN(CCC#N)/N=N\c1nc[nH]c1C(N)=O`: the T/C reads like this: (dose: 50.0 mg/kg/injection, schedule: Q01DX009 (ip), vehicle: saline with Tween-80) 89 % of control; under setting [1], 100 % of control; (dose: 200.0 mg/kg/injection, schedule: Q01DX009 (ip), vehicle: saline with Tween-80) 100 % of control; (dose: 400.0 mg/kg/injection, schedule: Q01DX009 (ip), vehicle: saline with Tween-80) 100 % of control.
